{"source": "paper PMC9886266", "about": "“New [1,2,4]triazolo[4,3-c]quinazolines as intercalative Topo II inhibitors: Design, synthesis, biological evaluation, and in silico studies” (PLOS ONE, 2023)", "molecular_target": "Topo II α and supercoiled pBR322 DNA (Homo sapiens, UniProt P11388)", "sequence (P11388 whole entry)": "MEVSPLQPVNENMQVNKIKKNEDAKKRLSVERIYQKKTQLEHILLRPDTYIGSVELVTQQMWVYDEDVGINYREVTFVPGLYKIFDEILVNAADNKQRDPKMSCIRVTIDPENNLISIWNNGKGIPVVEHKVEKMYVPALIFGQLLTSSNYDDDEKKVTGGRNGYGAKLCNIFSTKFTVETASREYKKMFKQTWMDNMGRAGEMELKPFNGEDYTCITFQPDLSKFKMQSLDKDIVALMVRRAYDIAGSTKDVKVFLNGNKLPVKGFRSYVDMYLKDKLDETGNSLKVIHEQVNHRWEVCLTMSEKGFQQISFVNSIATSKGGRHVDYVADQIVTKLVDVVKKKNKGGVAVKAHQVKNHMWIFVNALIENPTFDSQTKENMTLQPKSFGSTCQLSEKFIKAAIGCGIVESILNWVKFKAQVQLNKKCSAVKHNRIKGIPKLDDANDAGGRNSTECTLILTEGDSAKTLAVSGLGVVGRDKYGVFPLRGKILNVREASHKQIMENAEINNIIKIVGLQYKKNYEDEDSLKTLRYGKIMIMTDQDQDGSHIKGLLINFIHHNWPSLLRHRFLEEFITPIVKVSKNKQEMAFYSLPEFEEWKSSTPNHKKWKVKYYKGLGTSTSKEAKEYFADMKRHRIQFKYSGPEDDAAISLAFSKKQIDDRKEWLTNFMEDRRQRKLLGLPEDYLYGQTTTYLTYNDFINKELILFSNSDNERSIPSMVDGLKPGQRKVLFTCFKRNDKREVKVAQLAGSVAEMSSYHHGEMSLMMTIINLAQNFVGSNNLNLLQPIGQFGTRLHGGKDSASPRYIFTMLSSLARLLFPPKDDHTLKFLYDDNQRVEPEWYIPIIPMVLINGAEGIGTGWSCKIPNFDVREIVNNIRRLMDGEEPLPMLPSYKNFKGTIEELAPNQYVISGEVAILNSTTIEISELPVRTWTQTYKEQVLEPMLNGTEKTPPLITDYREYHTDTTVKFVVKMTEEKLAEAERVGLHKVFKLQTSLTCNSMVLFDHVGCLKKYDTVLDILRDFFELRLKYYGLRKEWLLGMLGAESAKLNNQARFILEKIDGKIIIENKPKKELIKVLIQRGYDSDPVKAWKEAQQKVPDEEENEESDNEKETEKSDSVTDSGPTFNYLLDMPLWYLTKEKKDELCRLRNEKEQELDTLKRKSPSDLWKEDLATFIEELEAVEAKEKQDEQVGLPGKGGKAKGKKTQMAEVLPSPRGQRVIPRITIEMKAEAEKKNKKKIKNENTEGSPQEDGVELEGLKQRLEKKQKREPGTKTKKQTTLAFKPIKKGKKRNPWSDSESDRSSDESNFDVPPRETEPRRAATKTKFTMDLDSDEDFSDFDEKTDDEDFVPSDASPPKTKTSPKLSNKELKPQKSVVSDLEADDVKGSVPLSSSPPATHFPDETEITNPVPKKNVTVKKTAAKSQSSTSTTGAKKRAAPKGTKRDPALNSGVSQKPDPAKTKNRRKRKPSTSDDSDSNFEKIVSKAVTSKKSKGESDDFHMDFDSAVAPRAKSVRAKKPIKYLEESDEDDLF", "experiment": "Topo II-mediated DNA cleavage assay", "assay_type": "biochemical", "protocol": "The Topo II inhibitors may act through two pathways. Firstly, it can stabilize the Topo II-DNA covalent complexes leading to the formation of linear DNA (Topo II poisons). Secondly, it can block the catalytic site of Topo II (Topo II catalytic inhibitors).\nTopo II-mediated DNA cleavage assay was carried out according the reported method by Huang et al. as follows.\nTopo II α (10 U), supercoiled pBR322 DNA (0.2 μg) and compound 16 at concentration of 5 and 10 μM were added in Topo II buffer ([…], pH 8.0, 150 mM NaCl, 10 mM MgCl2 2mM ATP, 0.5mM dithiothreitol, and 30 μg/mL BSA) of 20 μL volume. After incubating for 6 min at 37°C and then respectively adding 2 μL of 10% SDS, 2 μL of 250mM NaEDTA, pH 8.0, 2 μL of 0.8 mg/mL Proteinase K. Following reactions were incubated for another 30 min at 45°C. Samples were mixed with 4 μL of 6×loading buffer, heated at 70°C for 2 min and subjected to electrophoresis in a 1% agarose gel in 1×TAE buffer (30 mL) with 1 μL Gel Red. Finally, DNA bands were visualized by using UV light, photographed by using Alpha Innotech digital imaging system.\nAfter that, the DNA was run on 1% agarose gel in BioRad gel electrophoresis system for 1–2 h followed by staining with GelRedTM stain for 2 h and destained for 15 min with TAE buffer. The gel was imaged via BioRad’s Gel DocTMEZ system. Both supercoiled and linear strands DNA were incorporated in the gel as markers for DNA-Topo II intercalators. The results of IC50 values were calculated using the GraphPad Prism version 7. Each reaction was performed in duplicate, and at least three independent determinations of each IC50 were made.\nS2.3. DNA/Methyl Green Assay […]\nmethyl green dye method described by Burres et al. Activated Calf Thymus DNA (Merk, Germany) was treated with methyl green (Merk, Germany), then the synthesized compounds were applied to displace the methyl green dye, producing equivalent color. The results were reported […]\nS2.4. Topo II-mediated DNA cleavage assay […]"}
{"compound": "CCCNc1nc2ccccc2c2nnc(C(F)(F)F)n12", "note": "[Compound 16, N-Propyl-3-(trifluoromethyl)-[1,2,4]triazolo[4,3-c]quinazolin-5-amine]", "values": [{"measurement": "Effect on relaxation of supercoiled DNA by Topo II", "setting": "5 μM", "result": "induced relaxation for the DNA"}, {"measurement": "Effect on relaxation of supercoiled DNA by Topo II", "setting": "10 μM", "result": "blocked the formation of relaxed DNA"}, {"measurement": "Formation of linear DNA", "setting": "all concentrations (5 and 10 μM)", "result": "the linear DNA was not formed"}]}
